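Values below derive from 48-hour exposures of cells grown in 96-well plates, with endpoints linearly interpolated between the two concentrations bracketing the appropriate inhibition level. Here, GI50 denotes the concentration required for 50% inhibition of growth.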 Calls of active or inactive are those of the source. Rule as the data show it: active = GI50 up to about 1.1 µM and inactive = higher.
Key:
Assay in all cases: DTP human tumour cell line panel, 48 h
UACC-62 = tested on: UACC-62
SNB-78 = tested on: SNB-78
Hs-578T = tested on: Hs-578T
PC-3 = tested on: PC-3
HOP-18 = tested on: HOP-18
OVCAR-3 = tested on: OVCAR-3
MOLT-4 = tested on: MOLT-4
LOX IMVI = tested on: LOX IMVI
MDA-MB-231 = tested on: MDA-MB-231
MDA-MB-435 = tested on: MDA-MB-435
NCI-H226 = tested on: NCI-H226
CAKI-1 = tested on: CAKI-1
OVCAR-4 = tested on: OVCAR-4
LXFL 529 = tested on: LXFL 529
HCC 2998 = tested on: HCC 2998
KM-20L2 = tested on: KM-20L2
MCF7 = tested on: MCF7
BT-549 = tested on: BT-549
RXF 631 = tested on: RXF 631
DLD-1 = tested on: DLD-1
EKVX = tested on: EKVX
DMS-114 = tested on: DMS-114
DMS-273 = tested on: DMS-273
DU-145 = tested on: DU-145
MDA-N = tested on: MDA-N
NCI/ADR-RES = tested on: NCI/ADR-RES
M19-MEL = tested on: M19-MEL
CCRF-CEM = tested on: CCRF-CEM
SK-OV-3 = tested on: SK-OV-3
Malme-3M = tested on: Malme-3M
NCI-H460 = tested on: NCI-H460
786-0 = tested on: 786-0
RXF 393 = tested on: RXF 393
M14 = tested on: M14
TK-10 = tested on: TK-10
HOP-62 = tested on: HOP-62
SNB-19 = tested on: SNB-19
SK-MEL-28 = tested on: SK-MEL-28
OVCAR-5 = tested on: OVCAR-5
A549 = tested on: A549
SF-539 = tested on: SF-539
KM12 = tested on: KM12
K562 = tested on: K562
SF-268 = tested on: SF-268
HCT-116 = tested on: HCT-116
HL-60 = tested on: HL-60
U-251 = tested on: U-251
IGROV-1 = tested on: IGROV-1
NCI-H522 = tested on: NCI-H522
HOP-92 = tested on: HOP-92
COLO 205 = tested on: COLO 205
RPMI-8226 = tested on: RPMI-8226
HCT-15 = tested on: HCT-15
SW-620 = tested on: SW-620
SN12C = tested on: SN12C
A498 = tested on: A498
SF-295 = tested on: SF-295
UACC-257 = tested on: UACC-257
SK-MEL-2 = tested on: SK-MEL-2
HT-29 = tested on: HT-29
NCI-H23 = tested on: NCI-H23
OVCAR-8 = tested on: OVCAR-8
ACHN = tested on: ACHN
UO-31 = tested on: UO-31
SNB-75 = tested on: SNB-75

In the case of O=C1/C(=C/c2ccc(Cl)c(Cl)c2)CN(C(=O)CCN2CCOCC2)C/C1=C\c1ccc(Cl)c(Cl)c1, the GI50 (UACC-62) is reported as 1.71 µM (inactive), the GI50 (SNB-78) is reported as 2.66 µM (inactive) and the GI50 (Hs-578T) is reported as 7.76 µM (inactive). The GI50 (PC-3) was 0.00331 µM (active), the GI50 (HOP-18) was 2.55 µM (inactive) and the GI50 (OVCAR-3) was 0.00454 µM (active). The GI50 (MOLT-4) was 0.00283 µM (active), the GI50 (LOX IMVI) was 0.00217 µM (active) and the GI50 (MDA-MB-231) was 0.00286 µM (active). For the same compound, the GI50 (MDA-MB-435) was 0.0121 µM (active), the GI50 (NCI-H226) was 2.04 µM (inactive) and the GI50 (CAKI-1) was 1.51 µM (inactive). The GI50 (OVCAR-4) was 0.00395 µM (active), the GI50 (LXFL 529) was 1.56 µM (inactive) and the GI50 (HCC 2998) was 2.09 µM (inactive). The GI50 (KM-20L2) was 1.38 µM (inactive), the GI50 (MCF7) was 0.0184 µM (active) and the GI50 (BT-549) was 0.0169 µM (active). The GI50 (RXF 631) was 2.94 µM (inactive), the GI50 (DLD-1) was 0.182 µM (active) and the GI50 (EKVX) was 2.4 µM (inactive). The GI50 (DMS-114) was 0.746 µM (active), the GI50 (DMS-273) was 1.12 µM (inactive) and the GI50 (DU-145) was 0.0373 µM (active). For the same compound, the GI50 (MDA-N) was 0.0145 µM (active), the GI50 (NCI/ADR-RES) was 0.0043 µM (active) and the GI50 (M19-MEL) was 1.64 µM (inactive).
With Cn1ccnc1CCc1ccc(Cl)cc1Cl the GI50 (CCRF-CEM) was > 100 µM (inactive), the GI50 (UACC-62) was > 100 µM (inactive) and the GI50 (SK-OV-3) was > 100 µM (inactive). The GI50 (Malme-3M) was > 100 µM (inactive), the GI50 (SNB-78) was > 100 µM (inactive) and the GI50 (NCI-H460) was > 100 µM (inactive). For the same compound, the GI50 (786-0) was > 100 µM (inactive), the GI50 (RXF 393) was 35.4 µM (inactive) and the GI50 (M14) was > 100 µM (inactive). For the same compound, the GI50 (TK-10) was > 100 µM (inactive), the GI50 (HOP-62) was > 100 µM (inactive) and the GI50 (SNB-19) was > 100 µM (inactive). For the same compound, the GI50 (SK-MEL-28) was > 100 µM (inactive), the GI50 (OVCAR-5) was > 100 µM (inactive) and the GI50 (HOP-18) was > 100 µM (inactive). The GI50 (A549) was > 100 µM (inactive), the GI50 (OVCAR-3) was > 100 µM (inactive) and the GI50 (MOLT-4) was > 100 µM (inactive). The GI50 (SF-539) was > 100 µM (inactive), the GI50 (KM12) was > 100 µM (inactive) and the GI50 (K562) was > 100 µM (inactive). The GI50 (SF-268) was > 100 µM (inactive), the GI50 (HCT-116) was > 100 µM (inactive) and the GI50 (LOX IMVI) was > 100 µM (inactive). For the same compound, the GI50 (HL-60) was 68.1 µM (inactive), the GI50 (U-251) was > 100 µM (inactive) and the GI50 (NCI-H226) was > 100 µM (inactive). The GI50 (IGROV-1) was > 100 µM (inactive), the GI50 (CAKI-1) was > 100 µM (inactive) and the GI50 (OVCAR-4) was > 100 µM (inactive). The GI50 (NCI-H522) was > 100 µM (inactive), the GI50 (HOP-92) was 49.9 µM (inactive) and the GI50 (LXFL 529) was > 100 µM (inactive). The GI50 (HCC 2998) was > 100 µM (inactive), the GI50 (COLO 205) was > 100 µM (inactive) and the GI50 (RPMI-8226) was > 100 µM (inactive). For the same compound, the GI50 (HCT-15) was greater than 100 µM, the GI50 (SW-620) was > 100 µM (inactive) and the GI50 (KM-20L2) was > 100 µM (inactive). For the same compound, the GI50 (SN12C) was > 100 µM (inactive), the GI50 (A498) was > 100 µM (inactive) and the GI50 (SF-295) was 79.1 µM (inactive). For the same compound, the GI50 (UACC-257) was > 100 µM (inactive), the GI50 (SK-MEL-2) was > 100 µM (inactive) and the GI50 (HT-29) was 79.4 µM (inactive). The GI50 (RXF 631) was > 100 µM (inactive), the GI50 (DLD-1) was > 100 µM (inactive) and the GI50 (EKVX) was 48.8 µM (inactive). The GI50 (NCI-H23) was > 100 µM (inactive), the GI50 (DMS-114) was 56.8 µM (inactive) and the GI50 (DMS-273) was > 100 µM (inactive). For the same compound, the GI50 (OVCAR-8) was > 100 µM (inactive), the GI50 (ACHN) was > 100 µM (inactive) and the GI50 (UO-31) was 49.5 µM (inactive). For the same compound, the GI50 (SNB-75) was > 100 µM (inactive) and the GI50 (M19-MEL) was > 100 µM (inactive).
